Experimental data from patent publication US20240287080A1 (IDEAYA Biosciences Inc., priority 2021, published 2024).
pIC50: −log10 of the molar value.

Target: T1, Pol theta (1-899) (Homo sapiens, UniProt O75417)
T1 construct: Pol theta (1-899) (5 nM) in assay buffer
Test: Pol theta ATPase activity, NADH oxidation-coupled enzymatic assay (ATPase NADH coupling: Standard Screening: hPolQ)
Assay type: biochemical
Settings: Table 4; Pol theta (1-899) 5 nM, ATP, dT50 ssDNA
How it was run: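 NADH-coupled ATPase readout: 5 nM Pol theta (1-899) preincubated 15 min with 10-point compound series in Tris pH 7.80, KCl, MgCl2, DTT, BSA, Tween, glycerol, then 100 μM ATP, 300 nM 50-mer poly-dT ssDNA, NADH, PEP, LDH and PK added (stock levels). A340 followed 60 min; slopes fit four-parameter for IC50.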

T1 sequence (O75417 1-899): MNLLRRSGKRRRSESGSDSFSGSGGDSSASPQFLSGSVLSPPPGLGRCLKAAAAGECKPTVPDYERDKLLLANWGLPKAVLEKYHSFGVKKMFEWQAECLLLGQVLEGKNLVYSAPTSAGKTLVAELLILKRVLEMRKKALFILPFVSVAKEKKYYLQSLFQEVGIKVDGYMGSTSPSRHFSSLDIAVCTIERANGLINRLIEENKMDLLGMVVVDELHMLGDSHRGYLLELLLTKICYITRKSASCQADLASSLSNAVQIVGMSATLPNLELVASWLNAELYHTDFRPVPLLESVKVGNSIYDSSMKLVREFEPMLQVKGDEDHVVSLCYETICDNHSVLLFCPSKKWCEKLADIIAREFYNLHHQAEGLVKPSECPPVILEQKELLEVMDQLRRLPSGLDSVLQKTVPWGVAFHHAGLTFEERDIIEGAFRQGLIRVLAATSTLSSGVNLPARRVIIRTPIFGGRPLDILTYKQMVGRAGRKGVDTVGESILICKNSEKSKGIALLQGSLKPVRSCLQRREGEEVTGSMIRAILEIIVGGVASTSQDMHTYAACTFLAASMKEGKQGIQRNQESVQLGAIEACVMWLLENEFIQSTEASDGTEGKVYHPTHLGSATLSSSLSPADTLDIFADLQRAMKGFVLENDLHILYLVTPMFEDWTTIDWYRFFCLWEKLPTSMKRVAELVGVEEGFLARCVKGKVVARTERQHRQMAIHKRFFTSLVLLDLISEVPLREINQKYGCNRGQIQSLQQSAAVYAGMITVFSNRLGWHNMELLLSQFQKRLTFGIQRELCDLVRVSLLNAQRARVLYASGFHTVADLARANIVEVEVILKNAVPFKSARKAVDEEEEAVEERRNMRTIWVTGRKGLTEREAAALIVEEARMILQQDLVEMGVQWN

Compound | pIC50
C#CCOc1nnc(NC(=O)c2ccncc2-c2ccccc2OC)s1 [Example 1, 3-(2-methoxyphenyl)-N-(5-(prop-2-yn-1-yloxy)-1,3,4-thiadiazol-2-yl)isonicotinamide] | ≥ 6.70
COc1nnc(NC(=O)c2cnc(C)cc2-c2c(F)cccc2OC)s1 [Example 2, 4-(2-fluoro-6-methoxyphenyl)-N-(5-methoxy-1,3,4-thiadiazol-2-yl)-6-methylpyridine-3-carboxamide] | ≥ 6.70
COc1cccc(F)c1-c1cc(C)ncc1C(=O)Nc1nnc(O)s1 [Example 3, 4-(2-fluoro-6-methoxyphenyl)-N-(5-hydroxy-1,3,4-thiadiazol-2-yl)-6-methylnicotinamide] | 5.00 to 6.00
COc1cccc(F)c1-c1cc(C)ncc1C(=O)Nc1nnc(OCC(C)(C)C(F)(F)F)s1 [Example 4, 4-(2-fluoro-6-methoxyphenyl)-6-methyl-N-(5-(3,3,3-trifluoro-2,2-dimethylpropoxy)-1,3,4-thiadiazol-2-yl)pyridine-3-carboxamide] | 6.30 to 6.70
COc1nnc(NC(=O)c2cnc(C)cc2-c2cc(Cl)ncc2OC)s1 [Example 5, 2′-chloro-5′-methoxy-N-(5-methoxy-1,3,4-thiadiazol-2-yl)-6-methyl-(4,4′-bipyridine)-3-carboxamide] | ≥ 6.70
COc1cnc(Cl)cc1-c1cc(C)ncc1C(=O)Nc1nnc(OC(C)C)s1 [Example 6, 2′-chloro-N-(5-isopropoxy-1,3,4-thiadiazol-2-yl)-5′-methoxy-6-methyl-(4,4′-bipyridine)-3-carboxamide] | ≥ 6.70
COc1cnc(Cl)cc1-c1cc(C)ncc1C(=O)Nc1nnc(OC2CC2)s1 [Example 7, 2′-chloro-N-(5-cyclopropoxy-1,3,4-thiadiazol-2-yl)-5′-methoxy-6-methyl-(4,4′-bipyridine)-3-carboxamide] | ≥ 6.70
COc1nnc(NC(=O)c2cnc(C)cc2-c2cc(C)ncc2OC)s1 [Example 8] | ≥ 6.70
COc1nnc(NC(=O)c2cnc(C)cc2-c2cc(Cl)ccc2OC)s1 [Example 9, 4-(5-chloro-2-methoxyphenyl)-N-(5-methoxy-1,3,4-thiadiazol-2-yl)-6-methylnicotinamide] | ≥ 6.70
COc1cnc(Cl)cc1-c1cc(C)ncc1C(=O)Nc1nnc(OCC(C)(C)C#N)s1 [Example 10, 2′-chloro-N-(5-(2-cyano-2-methylpropoxy)-1,3,4-thiadiazol-2-yl)-5′-methoxy-6-methyl-(4,4′-bipyridine)-3-carboxamide] | ≥ 6.70
COc1cnc(Cl)cc1-c1cc(C)ncc1C(=O)Nc1nnc(OC2CCC2)s1 [Example 11, 2′-chloro-N-(5-cyclobutoxy-1,3,4-thiadiazol-2-yl)-5′-methoxy-6-methyl-(4,4′-bipyridine)-3-carboxamide] | ≥ 6.70
COc1cnc(Cl)cc1-c1cc(C)ncc1C(=O)Nc1nnc(OC2CCCCC2)s1 [Example 12, 2′-chloro-N-(5-(cyclohexyloxy)-1,3,4-thiadiazol-2-yl)-5′-methoxy-6-methyl-(4,4′-bipyridine)-3-carboxamide] | ≥ 6.70
COc1cnc(Cl)cc1-c1cc(C)ncc1C(=O)Nc1nnc(OC2COC2)s1 [Example 13, 2′-chloro-5′-methoxy-6-methyl-N-(5-(oxetan-3-yloxy)-1,3,4-thiadiazol-2-yl)-(4,4′-bipyridine)-3-carboxamide] | ≥ 6.70
COc1cnc(Cl)cc1-c1cc(C)ncc1C(=O)Nc1nnc(OCC(C)(C)O)s1 [Example 14, 2′-chloro-N-(5-(2-hydroxy-2-methylpropoxy)-1,3,4-thiadiazol-2-yl)-5′-methoxy-6-methyl-(4,4′-bipyridine)-3-carboxamide] | ≥ 6.70
COc1cnc(Cl)cc1-c1cc(C)ncc1C(=O)Nc1nnc(O[C@H]2C[C@@H](O)C2)s1 [Example 15, 2′-chloro-N-(5-((1s,3s)-3-hydroxycyclobutoxy)-1,3,4-thiadiazol-2-yl)-5′-methoxy-6-methyl-(4,4′-bipyridine)-3-carboxamide] | ≥ 6.70
COc1cnc(Cl)cc1-c1cc(C)ncc1C(=O)Nc1nnc(O[C@H]2C[C@H](O)C2)s1 [Example 16, 2′-chloro-N-(5-((1r,3r)-3-hydroxycyclobutoxy)-1,3,4-thiadiazol-2-yl)-5′-methoxy-6-methyl-(4,4′-bipyridine)-3-carboxamide] | ≥ 6.70
COc1cnc(Cl)cc1-c1cc(C)ncc1C(=O)Nc1nnc(OC2CCCC2)s1 [Example 17, 2′-chloro-N-(5-(cyclopentyloxy)-1,3,4-thiadiazol-2-yl)-5′-methoxy-6-methyl-(4,4′-bipyridine)-3-carboxamide] | ≥ 6.70
COc1cnc(Cl)cc1-c1cc(C)ncc1C(=O)Nc1nnc(OCC(F)F)s1 [Example 18, 2′-chloro-N-(5-(2,2-difluoroethoxy)-1,3,4-thiadiazol-2-yl)-5′-methoxy-6-methyl-(4,4′-bipyridine)-3-carboxamide] | ≥ 6.70
COc1cnc(Cl)cc1-c1cc(C)ncc1C(=O)Nc1nnc(OCC(C)(C)F)s1 [Example 19, 2′-chloro-N-(5-(2-fluoro-2-methylpropoxy)-1,3,4-thiadiazol-2-yl)-5′-methoxy-6-methyl-(4,4′-bipyridine)-3-carboxamide] | ≥ 6.70

Compound | pIC50
COc1cnc(Cl)cc1-c1cc(C)ncc1C(=O)Nc1nnc(OCC(C)(F)F)s1 [Example 20, 6′-chloro-N-(5-(2,2-difluoropropoxy)-1,3,4-thiadiazol-2-yl)-3′-methoxy-6-methyl-4,4′-bipyridine-3-carboxamide] | ≥ 6.70
COc1cnc(Cl)cc1-c1cc(C)ncc1C(=O)Nc1nnc(OCC(C)C)s1 [Example 21, 2′-chloro-N-(5-isobutoxy-1,3,4-thiadiazol-2-yl)-5′-methoxy-6-methyl-(4,4′-bipyridine)-3-carboxamide] | ≥ 6.70
COc1cnc(Cl)cc1-c1cc(C)ncc1C(=O)Nc1nnc(O[C@H]2CCOC2)s1 [Example 22, (S)-2′-chloro-5′-methoxy-6-methyl-N-(5-((tetrahydrofuran-3-yl)oxy)-1,3,4-thiadiazol-2-yl)-(4,4′-bipyridine)-3-carboxamide] | ≥ 6.70
COc1cnc(Cl)cc1-c1cc(C)ncc1C(=O)Nc1nnc(O[C@@H]2CCOC2)s1 [Example 23, (R)-2′-chloro-5′-methoxy-6-methyl-N-(5-((tetrahydrofuran-3-yl)oxy)-1,3,4-thiadiazol-2-yl)-(4,4′-bipyridine)-3-carboxamide] | ≥ 6.70
COc1cnc(Cl)cc1-c1cc(C)ncc1C(=O)Nc1nnc(OC2(C)COC2)s1 [Example 24, 2′-chloro-5′-methoxy-6-methyl-N-(5-((3-methyloxetan-3-yl)oxy)-1,3,4-thiadiazol-2-yl)-(4,4′-bipyridine)-3-carboxamide] | ≥ 6.70
COc1cnc(Cl)cc1-c1cc(C)ncc1C(=O)Nc1nnc(OC2CCS(=O)(=O)CC2)s1 [Example 25, 2′-chloro-N-(5-((1,1-dioxidotetrahydro-2H-thiopyran-4-yl)oxy)-1,3,4-thiadiazol-2-yl)-5′-methoxy-6-methyl-(4,4′-bipyridine)-3-carboxamide] | ≥ 6.70
CCOc1nnc(NC(=O)c2cnc(C)cc2-c2cc(Cl)ncc2OC)s1 [Example 28, 2′-chloro-N-(5-ethoxy-1,3,4-thiadiazol-2-yl)-5′-methoxy-6-methyl-(4,4′-bipyridine)-3-carboxamide] | ≥ 6.70
COc1cnc(Cl)cc1-c1cc(C)ncc1C(=O)Nc1nnc(OCC(F)(F)F)s1 [Example 29, 2′-chloro-5′-methoxy-6-methyl-N-(5-(2,2,2-trifluoroethoxy)-1,3,4-thiadiazol-2-yl)-(4,4′-bipyridine)-3-carboxamide] | ≥ 6.70
COc1nnc(NC(=O)c2cnc(C)cc2-c2cc(C)ccc2OC)s1 [Example 30, N-(5-methoxy-1,3,4-thiadiazol-2-yl)-4-(2-methoxy-5-methylphenyl)-6-methylnicotinamide] | ≥ 6.70
COc1cnc(Cl)cc1-c1cc(C)ncc1C(=O)Nc1nnc(O)s1 [Example 31, 2′-chloro-N-(5-hydroxy-1,3,4-thiadiazol-2-yl)-5′-methoxy-6-methyl-(4,4′-bipyridine)-3-carboxamide] | 6.30 to 6.70
COc1nnc(NC(=O)c2cnc(C)cc2-c2c(F)cccc2OC(F)F)s1 [Example 32, 4-(2-(difluoromethoxy)-6-fluorophenyl)-N-(5-methoxy-1,3,4-thiadiazol-2-yl)-6-methylnicotinamide] | ≥ 6.70
COc1nnc(NC(=O)c2cnc(C)cc2-c2cc(Cl)ccc2OC(F)F)s1 [Example 33, 4-(5-chloro-2-(difluoromethoxy)phenyl)-N-(5-methoxy-1,3,4-thiadiazol-2-yl)-6-methylnicotinamide] | ≥ 6.70
COc1nnc(NC(=O)c2cnc(C)cc2-c2c(Cl)cccc2Cl)s1 [Example 34, 4-(2,6-dichlorophenyl)-N-(5-methoxy-1,3,4-thiadiazol-2-yl)-6-methylnicotinamide] | 6.00 to 6.30
COc1nnc(NC(=O)c2cnc(C)cc2-c2c(Cl)cccc2OC)s1 [Example 35, 4-(2-chloro-6-methoxyphenyl)-N-(5-methoxy-1,3,4-thiadiazol-2-yl)-6-methylnicotinamide] | 6.30 to 6.70
COc1nnc(NC(=O)c2cnc(C)cc2-c2ccccc2OC(F)F)s1 [Example 36, 4-(2-(difluoromethoxy)phenyl)-N-(5-methoxy-1,3,4-thiadiazol-2-yl)-6-methylnicotinamide] | ≥ 6.70
CCCOc1nnc(NC(=O)c2cnc(C)cc2-c2cc(Cl)ncc2OC)s1 [Example 37, 2′-chloro-5′-methoxy-6-methyl-N-(5-propoxy-1,3,4-thiadiazol-2-yl)-(4,4′-bipyridine)-3-carboxamide] | ≥ 6.70
COc1nnc(NC(=O)c2cnc(C)cc2-c2c(F)cccc2Cl)s1 [Example 38, 4-(2-chloro-6-fluorophenyl)-N-(5-methoxy-1,3,4-thiadiazol-2-yl)-6-methylnicotinamide] | ≥ 6.70
COc1nnc(NC(=O)c2cnc(C)cc2-c2cc(Cl)ncc2C)s1 [Example 39, 2′-chloro-N-(5-methoxy-1,3,4-thiadiazol-2-yl)-5′,6-dimethyl-(4,4′-bipyridine)-3-carboxamide] | ≥ 6.70
